Measurements: US12257264B2, “Combination therapy for HIV with adenosine derivative and capsid inhibitors” (Brii Biosciences, Inc., priority 2021, dated 2025)

Test: Plasma exposures following IV infusion alone or in combination to Sprague-Dawley rats
Conditions: for concentration at 0.25 h: 0.250 hrs; for concentration at 0.5 h: 0.500 hrs
Experimental: The pharmacokinetics of EFdA and prodrug formula 4-A, as well as lenacapavir were studied in rats after IV infusion administration alone or in combination at a dose of 1.0 mg/kg each.
Formulations: The prodrugs and lenacapavir were formulated alone or in combination as solutions at 1.0 mg/mL each in 20% […], 10% Solutol aqueous solution within 0.5 hour prior to dose.
Dose Administration and Sample Collection: The in-life phase of this study was conducted at the WuXi Apptec (WuXi) at Shanghai, China in accordance with the WuXi Institutional Animal Care and Use Committee (IACUC) standard animal procedures along with the IACUC guidelines that are in compliance with the Animal Welfare Act, the Guide for the Care and Use of Laboratory Animals. and was approved by the IACUA Committee. Male Sprague-Dawley rats (0.262+/−0.019 kg) were used for the studies. Each drug was administered as a single dose by 30-min IV infusion (1 ml/kg) alone or in combination. Plasma samples were collected at 0 (pre-dose), 5, 10, 15 and 30 min, 1, 2, 4, 7, 12 and 24 h post-dose. Blood (approximately 0.1 mL) was processed immediately for plasma by centrifugation at 3,200 g at 4° C. for 10 min within half an hour of collection. Plasma samples were frozen and maintained at −70° C. until analyzed. To stabilize the prodrug at the sample collection and subsequent analysis, the following stabilizing reagents were added to the blood collection K2EDTA tubes on wet ice prior to sample collection: for each 100 mL of blood, 10 mL of premade inhibitor cocktail consists of 600 mM Citric Acid, 400 mM PMSF, 400 mM NaF, and 400 mM Dichlorvos.
Determination of EFdA and Prodrugs in plasma: Briefly, plasma (20 μL) was mixed with 100 l acetonitrile to precipitate protein. Consistent with sample collection procedure, the same cocktail protocol was also added to stabilize the prodrug in the standard and QC samples.
Bioanalysis: A Sciex API-6500 Plus triplequadrupole mass spectrometer coupled with a Waters Acquity UPLC system (Framingham, MA 01701) was used for quantitative analysis of plasma samples. The column was a Waters HSS T3 column (2.1×50 mm, 1.8 micrometer). The mobile phases used were: A, 0.1% formic acid in water; B, 0.1% formic acid in acetonitrile. For the analysis of EFdA and prodrugs in plasma, the flow rate was 0.6 mL/min with a total run time of 2.0 min. […] Detection of the prodrug and EFdA were achieved using positive ion electrospray mass spectroscopic mode using unit resolution mode. Multiple reaction monitoring (MRM) modes were used to quantify both prodrug and EFdA, e.g. the MRM transition for EFdA was 294.0-154.2 Da, and the transition for prodrug 4-A was 449.3-164.9 Da. For the analysis of lenacapavir in plasma, the flow rate was 0.7 mL/min with a total run time of 1.5 min. The HPLC gradient was initiated at 95% A/5% B for 0.50 min, followed by linear gradient increase to […] over the next 0.2 min; the gradient was subsequently maintained at 100% of mobile B over the next 0.7 min before ramping down to 95% mobile phase A within the following 0.1 min. Detection of lenacapavir was achieved using positive ion electrospray mass spectroscopic mode using unit resolution mode. Multiple reaction monitoring (MRM) modes were used to quantify lenacapavir, e.g. the MRM transition for lenacapavir was 968.1-869.4 Da. Peak areas were integrated by the Sciex program Analyst®, version 1.6.3, operating on a Windows 7 computer where concentrations were determined by a weighted (1/x2) linear regression of peak area ratios (peak area of EFdA/peak area of corresponding IS) versus the nominal concentrations of the plasma calibration standards. Calculations were performed on unrounded numbers. Overall, Analyst® determined the precision and accuracy for the calibration standards and QC samples.

[1] = male, Sprague-Dawley, rat, in vivo, 1 mg/kg, Lenacapavir Concentrations in Rat Plasma When Dosed Alone, Lenacapavir IV infusion 1.0 mg/kg alone, individual animals
[2] = male, Sprague-Dawley, rat, in vivo, 1 mg/kg, Lenacapavir Concentrations in Rat Plasma When Dosed Alone, Lenacapavir IV infusion 1.0 mg/kg alone, Mean
[3] = male, Sprague-Dawley, rat, in vivo, Lenacapavir Concentrations in Rat Plasma When Dosed with Prodrug formula 4-A, Lenacapavir IV infusion 1.0 mg/kg with Prodrug formula 4-A, Mean
[4] = male, Sprague-Dawley, rat, in vivo, iv, 1 mg/kg

CC(C)(C#Cc1ccc(-c2ccc(Cl)c3c(NS(C)(=O)=O)nn(CC(F)(F)F)c23)c([C@H](Cc2cc(F)cc(F)c2)NC(=O)Cn2nc(C(F)(F)F)c3c2C(F)(F)[C@@H]2C[C@H]32)n1)S(C)(=O)=O [Lenacapavir, reference compound]
concentration at 0.25 h [1]: 796 ng/mL | concentration at 0.5 h [2]: 789 ng/mL | concentration at 0.5 h [1]: 980 ng/mL | concentration at 1 h [2]: 222 ng/mL | concentration at 1 h [1]: 261 ng/mL | concentration at 2 h [2]: 150 ng/mL | concentration at 2 h [1]: 181 ng/mL | concentration at 4 h [2]: 156 ng/mL | concentration at 4 h [1]: 171 ng/mL | concentration at 7 h [2]: 138 ng/mL | concentration at 12 h [2]: 117 ng/mL | concentration at 12 h [1]: 145 ng/mL | concentration at 24 h [2]: 136 ng/mL | concentration at 24 h [1]: 141 ng/mL | concentration at 72 h [2]: 69.6 ng/mL | concentration at 0.083 h (male, Sprague-Dawley, rat, in vivo, Lenacapavir Concentrations in Rat Plasma When Dosed with Prodrug formula 4-A, Lenacapavir IV infusion 1.0 mg/kg with Prodrug formula 4-A, 0.0830 hrs, Mean): 413 ng/mL | concentration at 0.167 h (male, Sprague-Dawley, rat, in vivo, Lenacapavir Concentrations in Rat Plasma When Dosed with Prodrug formula 4-A, Lenacapavir IV infusion 1.0 mg/kg with Prodrug formula 4-A, 0.167 hrs, Mean): 507 ng/mL | concentration at 0.25 h [3]: 590 ng/mL | concentration at 0.5 h [3]: 645 ng/mL | concentration at 1 h [3]: 162 ng/mL | concentration at 2 h [3]: 127 ng/mL | concentration at 4 h [3]: 93.5 ng/mL | concentration at 7 h [3]: 93 ng/mL | concentration at 12 h [3]: 128 ng/mL | concentration at 24 h [3]: 133 ng/mL | concentration at 72 h [3]: 83.3 ng/mL | AUC [4]: 7980 ng·h/mL | Cmax [4]: 903 ng/mL | Pharmacokinetic profile of lenacapavir on co-administration of prodrugs, e.g. formula 4-A (rats, IV infusion): not affected
